Experimental data published in US9101556B2, “Therapeutic agent and therapeutic device for alleviating ischemia-reperfusion injury” (priority 2010, dated 2015).

Test system: myocardial ischemia-reperfusion injury
Experiment: Murine myocardial ischemia-reperfusion injury model (60 min LAD ligation, then reperfusion); infarcted area by Evans blue/TTC staining
Format: in vivo, C57BL/6J male mice
Conditions: inhalation from 5 min before until 30 min after start of reperfusion; measured 24 h after reperfusion; vs control (oxygen only); t-test p<0.01
Description: 10-week old C57BL/6J male mice were used for the experiment. […] However, during this period, the animals were allowed to take ad libitum the antibiotic-containing water. […] After intraperitoneal administration of pentobarbital as an anesthetic and tracheal intubation, each animal was connected to an animal ventilator for respiration care. The left thorax was shaven and disinfected to carry out thoracotomy, and the left anterior descending coronary artery was ligated with a silk thread to maintain a state of ischemia for 60 minutes. The silk thread used for ligation was then released to cause reperfusion. Reperfusion was confirmed by the restart of blood flow. After confirming reperfusion, the thorax was closed, and ventilator care was continued until the animal awakened from anesthesia. After awakening from anesthesia, the tube was removed, and the animal received care in indoor air. […] Based on the image which was obtained, each heart section was measured for the area of the LV (left ventricle), the AAR (area at risk=the ischemic area), and the area of Nec (necrosis; the infarcted area) using ImageJ image processing software to calculate the value of AAR/LV (proportion of the ischemic area in the left ventricle) and that of Nec/AAR (proportion of the infarcted area in the ischemic area). […]

| Compound | Nec/AAR (proportion of the infarcted area in the ischemic area) compared with the control group |
| --- | --- |
| [HH] [hydrogen] | decreased |
| nitrogen monoxide | decreased |
